Source: patent US10472352B2, “Rac inhibitors” (Geneyus LLC, priority 2017, dated 2019)

Test system: estrogen receptor response gene (SDF) in MCF7 breast cancer cells
Assay: Inhibition of Estrogen Receptor Target Gene Transcription (SDF qPCR)
Assay type: cell-based
Conditions: MCF7, 10 nM estradiol, 4 hours
Method: After 4 hours, RNA was harvested and converted into cDNA. qPCR analysis for SDF was performed on all samples and normalized to expression of GAPDH. The data, shown in FIG. 7, is expressed as fold change relative to SDF expression of the cFBS sample.

With `FC(F)(F)c1ccc2c(SCCCCCCn3cnc(CN4CCOCC4)c3)ccnc2c1` [Compound 0032661, 4-[[1-[6-[[7-(trifluoromethyl)-4-quinolyl]sulfanyl]hexyl]imidazol-4-yl]methyl]morpholine] the “SDF gene expression, combination” value (1 uM fulvestrant plus 5 uM 0032661) was “reduces SDF gene expression more than either single treatment alone” and the “estrogen receptor target gene transcription (SDF)” value (1 uM fulvestrant, 5 or 10 uM 0032661) was “inhibit the estrogen receptor target gene transcription”.
